Data from BindingDB's records for doi:10.1016/S0960-894X(96)00551-3 (1996).

Assays:
[1] = molecular target: Endothelin A receptor (Oryctolagus cuniculus); assay: Compound was tested for its ability to inhibit Endothelin A receptor induced arachidonic acid release(AARA) in rabbit renal artery vascular smooth muscles.
[2] = molecular target: Endothelin A receptor (Oryctolagus cuniculus); assay: Antagonistic activity against endothelin A receptor in rabbit renal artery vascular smooth muscle cells.
[3] = Compound was tested for its ability to inhibit Endothelin A receptor induced arachidonic acid release(AARA) in rabbit renal artery vascular smooth muscles.

SMILES	IC50 [1] [µM]	IC50 [2] [µM]	further results
COC(=O)C(c1ccc2c(c1)OCO2)c1cc(C)nc2ccccc12 (stereo unspecified) [Benzo[1,3]dioxol-5-yl-(2-methyl-quinolin-4-yl)-acetic acid methyl ester]	2.8		
O=C(OCc1ccccc1)C(c1ccc2c(c1)OCO2)c1c2ccccc2nc2ccccc12 (stereo unspecified) [Acridin-9-yl-benzo[1,3]dioxol-5-yl-acetic acid benzyl ester]		7.5	
Cc1cc(C(C(N)=O)c2ccc3c(c2)OCO3)c2ccccc2n1 (stereo unspecified) [2-Benzo[1,3]dioxol-5-yl-2-(2-methyl-quinolin-4-yl)-acetamide]	13		
COC(=O)C(Cc1c2ccccc2cc2ccccc12)c1ccc2c(c1)OCO2 (stereo unspecified) [3-Anthracen-9-yl-2-benzo[1,3]dioxol-5-yl-propionic acid methyl ester]		> 25	
O=C(OCc1ccc2c(c1)OCO2)C(c1ccc2c(c1)OCO2)c1c2ccccc2nc2ccccc12 (stereo unspecified) [Acridin-9-yl-benzo[1,3]dioxol-5-yl-acetic acid benzo[1,3]dioxol-5-ylmethyl ester]		8.7	
OCC(c1ccc2c(c1)OCO2)c1c2ccccc2nc2ccccc12 (stereo unspecified) [2-Acridin-9-yl-2-benzo[1,3]dioxol-5-yl-ethanol]			IC50 [3]: 10 µM
